Measured values published in patent publication US20220000941A1, “MINERAL ELEMENTS COMPRISING HAFNIA ALVEI COMPOSITIONS” (TARGEDYS, priority 2019, published 2022).

What was measured:
[1] = system: Hafnia alvei 4597; experiment: Turbidity of Hafnia alvei culture media by optical densitometry (OD at 640 nm); type: cell-based; conditions: mineral source in LB medium, monitored during 48 hours
Method: The concentration of the minerals were based on their estimated concentration in […] (typical glass of water). However, in view of observing the Hafnia alvei strain development, the zinc and chrome sources were solubilized in a Luria Browth medium (LB). The composition of LB is as follows: Tryptone 10 g/L, yeast extract 5 g/L (Biokar Diagnostic®) and NaCl 0.5 g/L (Fluka®).
Hafnia alvei 4597 was incubated with Test medial-6 of example 1 and the turbidity of the culture media was monitored during 48 hours by means of optical densitometry (OD at 640 nm).
(§1) The development of Hafnia alvei in this new medium was monitored by optical densitometry and flow cytometry. LB medium with no added zinc or chrome was used as a control.

[2] = system: Hafnia alvei 4597; experiment: Flow cytometry of cell integrity (propidium iodide and Syto 24), intact cells; type: cell-based; conditions: zinc comprising media, flow cytometry at 24 h
Source text: Samples of the culture media 1-6 were further assessed for the cell integrity by means of flow cytometry using as markers propidium iodide and Syto® 24. The flow cytometry measured the number of intact cells opposed to the population of cells whose cellular membrane integrity had been compromised.
as §1

Row | SMILES | turbidity of the culture medium (OD at 640 nm) compared to control (LB) medium [1] | development inhibition compared to the control medium [2]
1 | O=C([O-])c1ccccn1.O=C([O-])c1ccccn1.O=C([O-])c1ccccn1.[Cr+3] [Chromium picolinate, chromium (3+); pyridine-2-carboxylate] | same turbidity as the control | 
2 | NCC(=O)[O-].NCC(=O)[O-].[Zn+2] [Zinc bisglycinate, zinc; 2-aminoacetate] |  | no significant development inhibition
